Assay results as given in US20090269753A1 (priority 2007, published 2009).

What was measured:
fasl = fasl real-time RT-PCR in SRC-1-/- osteoclasts transfected with SRC-1 WT or P1272S; type: cell-based, mice; settings: estradiol 10 nM or 40H-Tamoxifen 1 μM, 24 h
[1] = Hip and lumbar BMD by DXA at baseline and after 12 months of tamoxifen treatment; type: in vivo, women
Text: Patients were enrolled after they had completed all primary surgery, radiation, and adjuvant chemotherapy.

[2] = SRC-1-/- osteoclasts with P1272S SRC-1
[3] = SRC-1-/- osteoclasts with transfected Flag-SRC-1 WT vs vector alone

Structure (SMILES): C[C@]12CC[C@@H]3c4ccc(O)cc4CC[C@H]3[C@@H]1CC[C@@H]2O [Estrogen, estradiol]
- Induction of fasl (fasl; [2]): failed to upregulate fasl
- Induction of fasl (fasl; [3]): detectable

Structure (SMILES): CC/C(=C(\c1ccccc1)c1ccc(OCCN(C)C)cc1)c1ccccc1 [Tamoxifen, tamoxifen]
- Induction of fasl (fasl; [2]): failed to upregulate fasl
- Induction of fasl (fasl; [3]): detectable
- Lumbar BMD decrease ([1]; P1272S carriers (n=4), p=0.04 vs women without the SNP): 6.4%
- hip BMD decrease ([1]; SNP carriers (n=4), p=0.08 vs WT group): 4.3%
- hip BMD decrease ([1]; WT group (n=102)): 0.6%
- Lumbar BMD decrease ([1]; women without the SNP (n=107)): 1.3%
